Consider 2 compounds from paper PMC2746095 (Biochemistry, 2009).

Positions count from the first letter of the chain named.

The target in assay [1] is T1, R. etli pyruvate carboxylase (RePC) (Rhizobium etli, UniProt Q2K340, T882A).
T1 sequence (Q2K340 1-1154 T882A): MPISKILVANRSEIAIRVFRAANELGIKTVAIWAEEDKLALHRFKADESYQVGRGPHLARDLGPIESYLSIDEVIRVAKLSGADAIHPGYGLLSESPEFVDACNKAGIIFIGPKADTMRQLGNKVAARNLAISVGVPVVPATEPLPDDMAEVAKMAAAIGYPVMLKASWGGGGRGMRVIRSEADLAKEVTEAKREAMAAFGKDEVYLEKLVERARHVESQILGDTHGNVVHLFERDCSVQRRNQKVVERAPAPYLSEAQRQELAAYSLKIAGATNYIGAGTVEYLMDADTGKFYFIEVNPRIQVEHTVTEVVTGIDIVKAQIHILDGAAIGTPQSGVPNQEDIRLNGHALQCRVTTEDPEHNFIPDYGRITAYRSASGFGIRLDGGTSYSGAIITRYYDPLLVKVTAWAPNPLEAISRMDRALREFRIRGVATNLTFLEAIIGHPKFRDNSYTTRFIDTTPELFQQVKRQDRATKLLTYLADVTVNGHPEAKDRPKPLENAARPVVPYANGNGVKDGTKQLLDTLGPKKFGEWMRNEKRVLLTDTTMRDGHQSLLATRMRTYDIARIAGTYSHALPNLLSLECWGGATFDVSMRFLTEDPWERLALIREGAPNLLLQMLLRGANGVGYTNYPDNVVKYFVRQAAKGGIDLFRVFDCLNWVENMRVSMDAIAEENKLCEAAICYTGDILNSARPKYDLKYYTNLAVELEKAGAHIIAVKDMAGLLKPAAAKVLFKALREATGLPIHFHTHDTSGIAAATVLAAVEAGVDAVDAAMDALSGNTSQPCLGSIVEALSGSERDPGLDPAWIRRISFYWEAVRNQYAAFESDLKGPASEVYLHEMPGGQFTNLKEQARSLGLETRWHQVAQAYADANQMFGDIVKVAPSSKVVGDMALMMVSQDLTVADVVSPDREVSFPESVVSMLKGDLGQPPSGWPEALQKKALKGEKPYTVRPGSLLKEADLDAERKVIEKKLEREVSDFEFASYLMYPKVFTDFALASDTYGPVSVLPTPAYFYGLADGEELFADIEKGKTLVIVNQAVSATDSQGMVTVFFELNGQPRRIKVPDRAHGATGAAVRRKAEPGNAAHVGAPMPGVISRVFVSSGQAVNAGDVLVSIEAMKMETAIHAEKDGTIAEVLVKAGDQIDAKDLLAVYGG
Description: bicarbonate-dependent ATPase, coupled Pi assay, partial inhibition fit. Format: biochemical.

In assay [2] the target is T2, R. etli pyruvate carboxylase (RePC) (Rhizobium etli, UniProt Q2K340).
T2 sequence (Q2K340 1-1154): T1 sequence (Q2K340 1-1154 T882A) with A882T
Description: bicarbonate-dependent ATPase, coupled Pi assay, fit to substrate inhibition. The format is biochemical. To be noted: 0-20 mM pyruvate, text prints 10.2 ± 0.1 mM, 100 mM Tricine pH 7.5, 25 °C, 10 mM HCO3-, 2.5 mM MgATP, 2.5 mM MgCl2, 0.25 mM acetyl-CoA.

In turn, `NC(=O)C(=O)O` [oxamate] gave a Ki in assay [1] of 1000 ± 200 µM.

Take `CC(=O)C(=O)O` [pyruvate]: the “Ki” value in assay [2] stood at 10000 ± 1000 µM; in assay [1], 800 ± 100 µM.
